{"source": "patent US20230398051A1", "about": "“Anti-Microbial Skin-Care Composition Comprising Beta-Glucan and Natural Oil” (LANTMÄNNEN OATS AB, priority 2020, published 2023)", "key": {"L. monocytogenes": {"system": "L. monocytogenes", "assay": "Log reduction according to EN 1276", "assay_type": "cell-based"}, "S. typhimurium": {"system": "S. typhimurium", "assay": "Log reduction according to EN 1276", "assay_type": "cell-based"}, "bacteria": {"system": "bacteria", "conditions": "cited from earlier work"}, "S. aureus": {"system": "S. aureus", "assay": "Log reduction according to EN 1276", "assay_type": "cell-based", "description": "(§1) As shown in the Examples herein, the skin-care composition is active against bacteria and due to its content of hydrogen peroxide and lactate/lactic it is contemplated to be active against viruses as well, i.e. functioning as an anti-microbial composition. It has been shown that a synergistic effect between hydrogen peroxide and lactic acid in bacteria such as E. coli, P. aeruginosa, E. hirae, S. aureus, L. monocytogenes and S. typhimurium, see the following tables: […]"}, "E. coli": {"system": "E. coli", "assay": "Log reduction according to EN 1276", "assay_type": "cell-based", "description": "as §1"}, "E. hirae": {"system": "E. hirae", "assay": "Log reduction according to EN 1276", "assay_type": "cell-based"}, "P. aeruginosa": {"system": "P. aeruginosa", "assay": "Log reduction according to EN 1276", "assay_type": "cell-based"}, "bacteria, viruses": {"system": "bacteria, viruses", "conditions": "0.5% hydrogen peroxide; cited from earlier work"}, "spores": {"system": "spores", "conditions": "cited from earlier work"}}}
{"smiles": "OO", "note": "[1% H2O2, hydrogen peroxide]", "values": [{"measurement": "Log reduction according to EN 1276", "setting": "L. monocytogenes", "value": 0.6}, {"measurement": "Log reduction according to EN 1276", "setting": "S. typhimurium", "value": 0.5}]}
{"smiles": "CC(O)C(=O)O", "note": "(stereo not shown) [lactic acid]", "values": [{"measurement": "concentration regarded as bactericidal", "setting": "bacteria", "value": "≥ 0.25", "unit": "% w/w"}]}
{"smiles": "CC(O)C(=O)O", "note": "(stereo not shown) [1% LA, lactic acid]", "values": [{"measurement": "Log reduction according to EN 1276", "setting": "L. monocytogenes", "value": 3.8}, {"measurement": "Log reduction according to EN 1276", "setting": "S. typhimurium", "value": ">5"}]}
{"smiles": "CC(O)C(=O)O", "note": "(stereo not shown) [1% LA, pH 3, lactic acid]", "values": [{"measurement": "Log reduction according to EN 1276", "setting": "L. monocytogenes", "value": 2.2}, {"measurement": "Log reduction according to EN 1276", "setting": "S. typhimurium", "value": ">5"}]}
{"smiles": "OO", "note": "[3% H2O2, hydrogen peroxide]", "values": [{"measurement": "Log reduction according to EN 1276", "setting": "S. aureus", "value": "<1"}, {"measurement": "Log reduction according to EN 1276", "setting": "E. coli", "value": ">5"}, {"measurement": "Log reduction according to EN 1276", "setting": "E. hirae", "value": 0.1}, {"measurement": "Log reduction according to EN 1276", "setting": "P. aeruginosa", "value": ">5"}]}
{"smiles": "OO", "note": "[hydrogen peroxide]", "values": [{"measurement": "time in which bactericidal and virucidal activity was demonstrated", "setting": "bacteria, viruses", "value": 1, "unit": "min"}, {"measurement": "concentration that will work against most spores", "setting": "spores", "value": 3, "unit": "%"}]}
